Laboratory results taken from patent US12150933B2, “IL-8 inihibitors for use in the treatment of some urological disorders” (DOMPÉ FARMACEUTICI S.P.A., priority 2015, dated 2024).
Where “and” joins values, the source holds several entries; their conditions need not be identical. Identical values can stand only once. Entries after “also recorded” stand apart in the source; their conditions may differ.

Columns and labels:
[1] = system: CYP-induced visceral pain; test: Chronic administration in CYP-induced visceral pain in rats (Von Frey withdrawal threshold); format: in vivo, rat
Description: Cyclophosphamide, 75 mg/kg i.p. for 3 times, every 3rd day, was dissolved in distilled water and administered to animals by i.p. route (volume 5 mL/kg). Appropriate weight of Compd. 1 or Compd. 2 was dissolved in saline, all doses of test compounds were administered by oral gavage (volume 2 mL/kg).
On the day of the experiment, each rat was placed individually in a clear plastic testing box with a grid floor and allowed to acclimatize for at least 10 min. Visceral sensitivity in response to mechanical stimuli was determined using Von Frey monofilaments (1-2-4-8-15-26-60-100 g) applied in the lower abdominal area (close to the urinary bladder) and on both hind paws plantar surface (to evaluate referred pain).
Each Von Frey monofilament was applied 5 times at the level of abdomen and 3 times at the level of each paw, in an ascending order of strength at interval of 5 sec. A stimulus-induced response was considered positive when the paw was sharply withdrawn, paw licking occurred, or the animal flinched upon removal of the filament.
• before CYP administration (in order to acquire basal values) • after CYP administration and before treatment, to verify the pathology (in order to acquire pre-treatment values) • after chronic treatment, about 18 hours after last administration of Compd. 1 (in order to acquire post-treatment values). • after chronic treatment, 2 hours after the last administration of Compd. 1 (in order to acquire post-treatment values after chronic+acute administration)
Compd. 1 or vehicle was administered p.o. to animals twice daily (according to the pharmacokinetic profile of the compound) for 6 days, starting from 24 hours after last treatment with CYP, when painful symptoms were well established. Nociceptive hypersensitivity was evaluated about 18 hours after the last administration of Compd. 1 (or vehicle) in order to evaluate the effect of chronic administration, or a further dosage of compound was administered and evaluation carried out 2 hours thereafter, in order to compare with acute protocol, described in Example 1.

[2] = system: CYP-induced urinary bladder cystitis; test: Microscopic examination of urinary bladders after chronic administration (histology, immunohistochemistry); format: in vivo, rat
Text: At the end of the efficacy study of chronic administration, the urinary bladders were opened, placed in 10% buffered formalin and stored at room temperature until hystomorphological analysis.
Treatment with Compd. […] The induced lesions consisted of apoptosis, erosions of the mucosa, mitoses of the mucosal cells, mucosal hyperplasia, infiltration of inflammatory cells and micro-hemorrhages. Caspase 3 and caspase 9 expression (markers of apoptosis) as well as Ki67 expression (marker for cell proliferation) were reduced in the group treated with Compd. 1.

[3] = system: CYP-induced visceral pain; test: Chronic preventive treatment in CYP-induced visceral pain model in rats; comparison with Mesna; format: in vivo, rat; details: 7 mg/kg twice daily p.o. for 7 days
Description: The effect of chronic preventive administration of Compd. 1 in a visceral pain model induced by repeated administration of cyclophosphamide (CYP) in conscious rats was evaluated.
The oral dose of 7 mg/kg of Compd. 1 was chosen on the basis of previous evaluations. Compd. 1 or vehicle was orally administered to animals twice daily (according to the PK profile of the molecule) for 7 days. Mesna_or vehicle was intraperitoneally administered several times a day for 3 days (when CYP was administered).
Repeated treatment with CYP (75 mg/kg i.p. for 3 times, every 3rd day), induced a strong decrease in withdrawal thresholds to noxious stimulus measured at the level of low abdomen and hind-paws. Nociceptive hypersensitivity was evaluated. In the control group, nociceptive thresholds of abdomen and hind-paws were not altered after the treatment with vehicle.
Behavioral testing was performed at 4 different times: • before CYP administration (in order to acquire basal values) • after CYP administration and before treatment with the tested compound, to verify the pathology (in order to acquire pre-treatment values) • after treatment, 42 or 48 hours from the last administration of Compd. 1 or Mesna.

CYP-induced cystitis [4] = test: Microscopic examination of urinary bladders after chronic preventive administration; format: in vivo, rat; details: 12 hours before and twice per day from first day of CYP for 7 days
Text: At the end of the study, the urinary bladders were opened, placed in 10% buffered formalin and stored at room temperature until completion of hystomorphological analysis (see Example 6 below).
At the end of the efficacy study of chronic preventive administration, the urinary bladders were opened, placed in 10% buffered formalin and stored at room temperature until hystomorphological analysis.
Treatment with Compd. […] 1.

CYP-induced cystitis [5] = test: Follow-up up to 10 days after discontinuation of treatment (body weight, survival); format: in vivo
KC/GRO-α = KC/GRO-α plasma content after preventive treatment in CYP-induced cystitis model in rats; format: in vivo, rat; details: day 9; 20 mg/kg p.o. 12 hours before first CYP, then 7 mg/kg p.o. twice a day for 7 days
Description: The effect of chronic preventive administration of Compd. 1 on KC/GRO-α plasma content in a CYP-induced cystitis model in conscious rats was evaluated.
To elicit cystitis, rats received intraperitoneal (i.p.) injections of CYP (75 mg/Kg every third day for three times). A single high dose of Compd. 1 (20 mg/kg) was orally administered 12 hours before the first CYP treatment; subsequently Compd. 1 (7 mg/kg p.o.) was administered twice a day for 7 days (from day 1 to day 7 from the first CYP administration). The oral dose of 7 mg/kg of Compd. 1 was chosen on the basis of previous evaluations. Animals blood was collected at day 7 (the same day of the last CYP treatment) at day 8 (about 24 hrs after last CYP administration) and at day 9 (about 48 hrs after last CYP administration). Each experimental group was composed of 10 animals, 10 animals treated with CYP+vehicle compound, 10 animals treated with CYP+Compd. 1, and 10 animals (sham) treated with CYP vehicle+vehicle compound.
The same animal was subjected to 3 blood serial samplings in order to evaluate the time-course of inflammatory mediators content. After thawing and centrifuge to remove any aggregates and lipid residues that could interfere with the reading, the samples were evaluated through quantitative analysis of KC/GRO-α.

[6] = Pharmacokinetic profile after oral administration; format: in vivo
[7] = 7 mg/kg twice daily p.o. for 6 days, about 18 hours after last administration
[8] = immunohistochemistry, versus CYP group

SMILES: C[C@H](C(=O)O)c1ccc(Nc2nc(C(F)(F)F)cs2)cc1 [Compd. 1, (2S)-2-(4-{[4-(trifluoromethyl)-1,3-thiazol-2-yl]amino}phenyl) propanoic acid]
- painful visceral symptoms in both evaluated areas ([1]; 7 mg/kg twice daily p.o. for 6 days plus one further dose, 2 hours following the last administration): fully abolished the painful visceral symptoms in both evaluated areas
- nociceptive hypersensitivity in hind-paws plantar surface [1, 7]: completely reverses the nociceptive hypersensitivity in hind-paws plantar surface
- withdrawal thresholds in the abdomen [1, 7]: almost complete recovery of withdrawal thresholds in the abdomen; also recorded: almost complete increase in withdrawal thresholds in the abdomen
- inflammatory, degenerative and proliferative lesions of the urinary bladder ([2]; 7 mg/kg oral twice a day for 6 days after CYP): clearly reduced or reversed the inflammatory, degenerative and proliferative lesions
- Incidence: Apoptosis epithelial cell, urinary bladder ([2]; animals of 10/group, 7 mg/kg oral twice a day for 6 days after CYP): 3/10 and 3
- Caspase 3 and caspase 9 expression (markers of apoptosis) [2, 8]: reduced
- Ki67 expression (marker for cell proliferation) [2, 8]: reduced; also recorded: lower grade of positivity
- nociceptive hypersensitivity in hind-paws plantar surface [3]: completely reversed the nociceptive hypersensitivity in hind-paws plantar surface
- withdrawal thresholds in the abdomen [3]: almost complete recovery of withdrawal thresholds in the abdomen
- inflammatory, degenerative, proliferative and hemorrhagic lesions caused by CYP (CYP-induced cystitis [4]): clearly reduced the inflammatory, degenerative, proliferative and hemorrhagic lesions caused by CYP
- survival (CYP-induced cystitis [5]; vehicle-treated 50%): 65%
- body weight recovery (CYP-induced cystitis [5]; versus vehicle-treated animals): body weight recovery faster than vehicle-treated animals
- GRO-α/KC blood levels (KC/GRO-α): significantly reduces GRO-α/KC blood levels at day 9
- distribution in the tissues ([6]; in vivo): poorly distributed in the tissues
- elimination from plasma ([6]; in vivo): gradually eliminated from plasma
- oral bioavailability ([6]; in vivo, po): excellent oral bioavailability
- absorption ([6]; oral route): rapid absorption; also recorded: well absorbed by the oral route
- time of maximum concentration in plasma after administration ([6]; plasma): 2 h
- Cmax ([6]; plasma, oral, read-out: maximum concentration (Cmax) in plasma): 47400 ± 25400 ng/mL
